{
  "source": "patent US20040142048A1",
  "about": "“Compositions based on proanthocyanadin-catechin synergies for prevention and treatment of cancer” (priority 2004, published 2004)",
  "key": {"cancer cells": {"test_system": "cancer cells", "assay": "Effect of EGCg on cancer cell growth and apoptosis", "format": "cell-based"}, "[1]": {"assay": "Clearance of EGCg from the blood", "details": "in vivo"}},
  "data": [
    {"substance": "(−)-epigallocatechin gallate [EGCg]", "values": [
      {"measurement": "time cancer cells must be inhibited from growing before EGCg-induced apoptosis occurs", "setting": "cancer cells", "result": "48 to 72", "unit": "h"},
      {"measurement": "growth of cancer cells challenged with EGCg", "setting": "cancer cells; 10^−7 M EGCg every two hours during the day", "result": "growth is inhibited"},
      {"measurement": "reversibility of the effect on cancer cell growth", "setting": "cancer cells; EGCg removed, cells resume normal rates of growth", "result": "reversible"},
      {"measurement": "clearance from the blood", "setting": "[1]", "result": "rapidly cleared from the blood and metabolized"}
    ]}
  ]
}
